The results in this text go back to PubChem BioAssay (NCI).

Several values for one entry are separate records, joined by “and”; a condition that tells them apart may be missing. Identical values can stand only once.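 Results reflect a 48-hour exposure of cells in 96-well plates to compound at five concentrations. GI50 marks 50% less growth. At the TGI there is no net growth.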

Some test systems named below: 786-0 renal; CAKI-1 renal; KM12 colon; NCI-H226 lung; NCI-H460 lung; NCI-H522 lung; OVCAR-3 ovarian; T-47D breast; UO-31 renal; SNB-75 CNS.
Assay in all cases: growth of human tumour cells (NCI), 48 h

Regarding `COc1ccc2c(c1)nnc1c3cccnc3[nH]c21`, the GI50 with 786-0 renal was 509 nM and 2230 nM; with CAKI-1 renal it was 0.108 µM and 0.594 µM; in the assay with KM12 colon, 1220 nM and 1920 nM; in the assay on NCI-H226 lung, 2.62 µM and 7.87 µM; in the assay with NCI-H460 lung, 1930 nM and 1280 nM; with NCI-H522 lung it was 1090 nM. For the same compound, the GI50 is 964 nM and 1170 nM in the assay on OVCAR-3 ovarian; 492 nM and 224 nM in the assay on T-47D breast; 122 nM and 172 nM in the assay with UO-31 renal. For the same compound, the TGI in the assay on KM12 colon was 5.89 µM and 13.4 µM; with NCI-H226 lung, 11.1 µM and 65.3 µM; in the assay with NCI-H460 lung, 9.03 µM and 3.79 µM; with NCI-H522 lung, 3 µM; in the assay with OVCAR-3 ovarian it was 2.43 µM and 4.09 µM; in the assay on T-47D breast it was 2.61 µM and 4.21 µM. Further, the TGI in the assay on UO-31 renal is 1110 nM and 2170 nM.
Turning to `Clc1ccc(-c2nc(NCc3ccco3)c3ccccc3n2)c(Cl)c1`, the GI50 in the assay with 786-0 renal is 20000 nM; with CAKI-1 renal, 8.82 µM; in the assay on KM12 colon it was 10200 nM; in the assay on NCI-H226 lung, 20.7 µM; in the assay on NCI-H460 lung, 32900 nM; with NCI-H522 lung, 33700 nM. For the same compound, the GI50 with OVCAR-3 ovarian is 11600 nM; in the assay with T-47D breast it was 45600 nM; in the assay with UO-31 renal, 26800 nM. In addition, the TGI with 786-0 renal was 56.1 µM; in the assay on CAKI-1 renal, 31 µM; in the assay on KM12 colon, 27.3 µM; in the assay with NCI-H226 lung, > 100 µM; in the assay on NCI-H460 lung it was > 100 µM; with NCI-H522 lung, > 100 µM. Besides, the TGI in the assay with OVCAR-3 ovarian is 29.7 µM; with T-47D breast, > 100 µM; in the assay with UO-31 renal it was > 100000 nM.
For the compound `CN(C)c1ccc2[nH]c3c(C(N)=O)cc(=O)c(=O)c=3oc2c1`, the GI50 was 3190 nM in the assay with 786-0 renal; 3.48 µM in the assay with CAKI-1 renal; 3330 nM in the assay on KM12 colon; 4.74 µM in the assay on NCI-H226 lung; 2570 nM in the assay on NCI-H460 lung; 687 nM in the assay with NCI-H522 lung. For the same compound, the results for the GI50 in the assay on OVCAR-3 ovarian, in the assay with SNB-75 CNS and with T-47D breast were 508 nM, 2500 nM and 1810 nM, respectively. The TGI is 22.2 µM in the assay on 786-0 renal; > 100 µM in the assay with CAKI-1 renal; > 100 µM in the assay with KM12 colon; > 100 µM in the assay on NCI-H226 lung; > 100 µM in the assay on NCI-H460 lung; 8.24 µM in the assay on NCI-H522 lung. Further, the results for the TGI in the assay with OVCAR-3 ovarian, with SNB-75 CNS and in the assay with T-47D breast were 6.85 µM, 9.19 µM and > 100 µM, respectively.
For `O=C1Cc2cc(CCN3CCNCC3)c(Cl)cc2N1`, the GI50 was > 100000 nM in the assay with 786-0 renal; 6.11 µM in the assay with CAKI-1 renal; 3960 nM with KM12 colon; > 100 µM in the assay on NCI-H226 lung; 22900 nM with NCI-H460 lung; 4860 nM with NCI-H522 lung. In addition, the GI50 is 14100 nM with OVCAR-3 ovarian, 15500 nM in the assay on SNB-75 CNS and 29100 nM in the assay with T-47D breast. In addition, the TGI in the assay on 786-0 renal, with CAKI-1 renal, with KM12 colon, in the assay on NCI-H226 lung, with NCI-H460 lung and in the assay with NCI-H522 lung was > 100 µM each time. In addition, the results for the TGI in the assay with OVCAR-3 ovarian, in the assay on SNB-75 CNS and in the assay with T-47D breast were > 100 µM, 75.4 µM and > 100 µM, respectively.
For the compound `Cc1cc(N(CCNc2ccnc3cc(Cl)ccc23)Cc2ccc3c(c2)OCO3)nc(N2CCCC2)n1`, the GI50 in the assay on 786-0 renal is 1330 nM; with KM12 colon, 2700 nM; with NCI-H226 lung, 2.46 µM; with NCI-H522 lung, 1740 nM; in the assay on OVCAR-3 ovarian it was 1740 nM; in the assay with SNB-75 CNS it was 1340 nM. Moreover, the GI50 is 1930 nM in the assay with T-47D breast and 1260 nM in the assay with UO-31 renal. Also, the TGI turned out to be 2.85 µM in the assay on 786-0 renal; 11.5 µM with KM12 colon; 6.86 µM with NCI-H226 lung; 3.79 µM in the assay on NCI-H522 lung; 3.81 µM in the assay with OVCAR-3 ovarian; 3 µM in the assay on SNB-75 CNS. Also, the TGI in the assay on T-47D breast was 5.44 µM; in the assay with UO-31 renal it was 2990 nM.
In the case of `CC12O[C@H](C[C@@H](OC(=O)CCC(=O)O)[C@H]1O)n1c3ccccc3c3c4c(c5c6ccccc6n2c5c31)C(=O)NC4=O`, the GI50 with 786-0 renal was 2140 nM; in the assay with KM12 colon, 285 nM; in the assay on NCI-H226 lung it was 0.738 µM; with NCI-H460 lung, 1460 nM; with NCI-H522 lung it was 602 nM; in the assay on OVCAR-3 ovarian, 1320 nM. For the same compound, the GI50 in the assay on SNB-75 CNS is 1070 nM; with T-47D breast it was 830 nM; in the assay on UO-31 renal it was 201 nM. For the same compound, the TGI in the assay with 786-0 renal came to 11.3 µM; with KM12 colon it was 11.5 µM; with NCI-H226 lung, 9.71 µM; in the assay on NCI-H460 lung, 12.2 µM; in the assay on NCI-H522 lung, 6.92 µM; with OVCAR-3 ovarian, 14 µM. For the same compound, the TGI in the assay with SNB-75 CNS was 7.41 µM; in the assay with T-47D breast, > 50 µM; with UO-31 renal, 3550 nM.
Turning to `CCOC(=O)/C=C1/SC(=Nc2ccc(C#N)cc2)N(Cc2ccco2)C1=O`, the GI50 is 1930 nM in the assay on 786-0 renal; 2130 nM with KM12 colon; 2.22 µM in the assay on NCI-H226 lung; 5660 nM with NCI-H460 lung; 1830 nM in the assay with NCI-H522 lung; 1820 nM in the assay with OVCAR-3 ovarian. Moreover, the GI50 in the assay with SNB-75 CNS was 10300 nM; in the assay with T-47D breast it was 2570 nM; with UO-31 renal, 1450 nM. In addition, the TGI is 4.17 µM with 786-0 renal; 5.01 µM with KM12 colon; 4.76 µM in the assay with NCI-H226 lung; 19.7 µM in the assay on NCI-H460 lung; 4.12 µM in the assay with NCI-H522 lung; 3.52 µM in the assay on OVCAR-3 ovarian. For the same compound, the TGI with SNB-75 CNS was 55.4 µM; in the assay with T-47D breast, 8.24 µM; in the assay on UO-31 renal it was 2860 nM.
In the case of `COc1ccc(/C=C/c2ccnc3ccccc23)cc1OC`, the TGI was > 100 µM in the assay with 786-0 renal; 29.3 µM in the assay with CAKI-1 renal; 30.8 µM in the assay on KM12 colon; 48.5 µM with NCI-H226 lung; 28.5 µM in the assay on NCI-H460 lung; 23.2 µM in the assay with NCI-H522 lung. Also, the TGI with OVCAR-3 ovarian was 26.6 µM; with T-47D breast, 74.5 µM; in the assay with UO-31 renal, 478 nM.
For the compound `O=C(Oc1c(Cl)cc(Cl)cc1Cl)c1ccccc1Nc1ccnc(C(F)(F)F)c1`, the GI50 is 2950 nM in the assay with 786-0 renal; 7.12 µM with CAKI-1 renal; 4110 nM in the assay on KM12 colon; 5.93 µM in the assay on NCI-H226 lung; 3380 nM in the assay with NCI-H460 lung; 5700 nM with NCI-H522 lung. Further, the GI50 was 4300 nM with OVCAR-3 ovarian, 8550 nM in the assay with T-47D breast and 41000 nM with UO-31 renal. Besides, the TGI was 11.1 µM with 786-0 renal; > 100 µM in the assay with CAKI-1 renal; 32.5 µM with KM12 colon; 24.6 µM in the assay with NCI-H226 lung; > 100 µM in the assay on NCI-H460 lung; > 100 µM with NCI-H522 lung. Also, the TGI was > 100 µM in the assay on OVCAR-3 ovarian, > 100 µM in the assay with T-47D breast and > 100000 nM with UO-31 renal.
